# Measured values from a melting point compilation (Tetko et al.; mined from patent text by program, amines drawn as free bases though some values may be those of a salt).
row,SMILES,melting point [°C]
1,C[C@H](CSC(=O)c1ccccc1)C(=O)N1C(=O)N(Cc2ccccc2)C[C@H]1C(=O)OC(C)(C)C,104 to 106
2,COc1ccccc1N1CCN(Cc2ccc(NC(=O)C3=Cc4cc(-c5ccc(C)cc5)ccc4CC3)cc2)CC1,202 to 205
3,CCCc1nc(C=O)c(C)[nH]1,126 to 129
4,CC1(C)C(C=C2CCCC2)C1C(=O)OC(C#N)c1ccc(F)c(Oc2ccccc2)c1 (configuration not stated),81
5,COC(=O)c1cc(C=O)cnc1C1=NC(C)(C(C)C)C(=O)N1 (configuration not stated),113 to 117
6,CCCCn1c(=O)c(-c2c(Cl)cccc2Cl)cc2cnc(N)nc21,202 to 205
7,Cn1cc(C2=C(c3c4n(c5ccccc35)CCC(CO)CC4)C(=O)NC2=O)c2ccccc21 (configuration not stated),109 to 111
8,O=C(Nc1ccc(NC(=O)OCCCl)c([N+](=O)[O-])n1)OCCCl,118 to 119
9,CCCSC1=NSc2cc(C)cnc2N1Cc1ccc(-c2ccccc2-c2nnn[nH]2)cc1,158 to 160
10,NC1=NC2CCCc3cccc(c32)N1 (configuration not stated),230 to 232
11,CCC(NC(=O)CC(F)(F)F)c1ccc(Cl)c2nc3n(c12)CCCN3c1ccc(Cl)cc1Cl (configuration not stated),285 to 290
12,COC(=O)CCc1ccc(CCc2csc(NC(C)=O)n2)s1,104 to 106
13,CN1CCN(CC2COc3cc4ncnc(Nc5cccc(Br)c5)c4cc3O2)CC1 (configuration not stated),182 to 189
14,Nc1ccc(C(F)(F)F)cc1C(=O)O,191 to 192
15,CNS(=O)(=O)CCS(C)(=O)=O,116 to 117
16,O=C(OCCN1CCNC1=Nc1ccccc1N1CCOCC1)c1ccccc1,92 to 94
17,CN=C(NC#N)NCCSCc1c[nH]cn1,138 to 140
18,OC1CCCCC1N1CCC(Cc2ccc(Cl)cc2)CC1 (configuration not stated),69.1 to 70.4
19,CCC(C)(C)Nc1c(N(Cc2ccc(C#N)cc2Cl)C(C)=O)c(=O)c1=O,150 to 151
20,O=C(Cl)c1ccc2cc(C(=O)Cl)ccc2c1,186
21,c1ccc2cc(N3CCN(Cc4n[nH]c5ccccc45)CC3)ncc2c1,214 to 215
22,CC(=NC(C)c1ccc(Cl)cc1Cl)c1ccc(Cl)cc1Cl (configuration not stated),77 to 85
23,O=C(O)C(CC1CCCC1)c1ccc(S(=O)(=O)C2CCCC2)cc1 (configuration not stated),165 to 167
24,CCCCCCCCc1cccc(CCC(N)(CO)CO)c1,89 to 92

row,SMILES,melting point [°C]
1,CC#CCCn1ncc2c(OCC)c(C(=O)OCC)cnc21,93 to 95
2,CCSc1ccc2c3c(cccc13)C(=O)N2,144 to 146
3,Fc1ccc(-c2ncc(Br)cn2)cc1F,148
4,CC(=O)n1c(-c2ccc(C)cc2)cc2ccccc21,67 to 69
5,CCCCc1c(C(=O)c2ccc(OC)cc2)c2cc([N+](=O)[O-])ccc2n1C,168
6,CC(CSC(=O)c1ccco1)C(=O)N1CCCC1C(=O)O (mixture of isomers),132 to 140
7,COc1ccc(Sc2ccnc(Nc3ccc(OCCN(C)C)cc3)n2)cc1,112 to 113
8,COC(=O)CC[C@H](NC(=O)c1ccc(C(CO)CCCc2c(N)nc(N)nc2O)cc1)C(=O)OC (some centres not stated),104
9,CCOC(=O)N(c1ccc(Cl)cc1)c1ccccc1N,112 to 115
10,NC(=O)[C@@H]1CCCN1C(=O)CNP(=O)(Cc1ccccc1)Cc1ccccc1,91 to 95
11,CN(C)CC(=O)Nc1cccc(NC(=O)Nc2ccc(N(CCCl)CCCl)cc2)c1,62 to 64
12,CC(=O)Nc1nc(O)c2cc(I)cnc2n1,> 280
13,O=C(O)c1c(OCc2ccccc2)ccc2ccccc12,127 to 128
14,COc1ccc(C(=O)Nc2ccccc2)cc1NC(=S)Nc1cc(Cl)cc(Cl)c1,195 to 197
15,COc1ccc(-c2cc(C)cn2-c2ccc(S(C)(=O)=O)cc2)cc1,159 to 161
16,Cc1[nH]c2ccccc2c1CCC(=O)N1CCC(O)(Cc2ccccc2)CC1,117 to 119
17,COc1cc2c(cc1OC)CCC(/C=C/C(=N)NO)=C2,199 to 203
18,CC(C)(CNC=O)c1ccc2nc(-c3c[nH]cn3)[nH]c2c1,240 to 246
19,Cn1nc(-c2cnc(N)nc2-c2ccccc2Br)ccc1=O,> 250
20,CCCn1nc2c(N)nc3ccccc3c2c1CC(C)(C)C#N,248 to 250
21,Cc1[nH]c(=O)cc2c1CC(c1ccncc1)CC2 (configuration not stated),> 300
22,CCOC(=O)C(=CNc1ncnc2ccc(CC)cc12)C(=O)OCC,104 to 106
23,CCOC(=O)COc1ccc(C(=O)c2ccc(O)cc2)c(Cl)c1Cl,127 to 129
24,CC(=O)OC1OC(COC(=O)c2ccccc2)CC(OC(=O)c2ccccc2)C1OC(=O)c1ccccc1 (configuration not stated),123 to 124

row,SMILES,melting point [°C]
1,CCCOc1ncc(NC(C)C(=O)OC)cc1-c1nc2c(CCC)nn(C)c2c(=O)[nH]1 (configuration not stated),185 to 187
2,Cn1c(COc2ccc(CC3SC(=O)NC3=O)cc2)nc2ccc(Oc3ccc(NC(=O)C4CCCCC4)cc3)cc21 (configuration not stated),182 to 184
3,Nc1c(N=O)c(=O)n(CCC2CCCCC2)c(=O)n1CCC1CCCCC1,231 to 233
4,CC(C)(C#N)c1cc(Cn2cncn2)cc(C(N)=O)c1,144 to 145
5,O=C(CC1CCCCC1)Nc1c(Cl)ccc2nc(N3CCC(c4nnn[nH]4)CC3)ccc12,295 to 300
6,O=C(c1ccc(-n2ccnc2)cc1)N1CCN(S(=O)(=O)c2ccc3cc(Br)ccc3c2)CC1,207 to 209
7,COc1cc(C2C3=C(COC3=O)Nc3ccc4cn[nH]c4c32)ccc1F (configuration not stated),307 to 309
8,COc1cc(Cl)cnc1N,93 to 94
9,CNC(=O)c1cccc(NC(=O)Cc2cccc(F)c2)c1,147 to 148
10,N#Cc1ccc(N2CCCCO2)c2ccccc12,111 to 112
11,CN(C)N1C2=NCCN2C(=O)c2ccccc21,197 to 198
12,COc1cccc2c(=O)c(-c3cccc(C(F)(F)F)c3F)nn(CCCNS(C)(=O)=O)c12,62 to 64
13,O=C1NC(=O)C(Cc2ccc(OC[C@@H]3CCCN3c3nc4ccccc4s3)cc2)S1 (some centres not stated),95
14,N#CN=C(Nc1ccc(Cl)nc1)Oc1ccccc1,133 to 134
15,COC(=O)CC(=O)CC(O)/C=C/c1c(-c2ccc(F)cc2)n(C(C)C)c(=O)c2ccccc12 (configuration not stated),147 to 149
16,Nc1nc2ccccc2n2cnc(-c3noc(C4CC4)n3)c12,305 to 310
17,COC(=O)c1cc(-c2ccc(Cl)cc2)nn1Cc1ccc(Cl)cc1Cl,120
18,Cc1ccc(OCC(=O)O)c2sc3ccccc3c(=O)c12,198 to 235
19,NC(=O)c1c(C(F)(F)F)nn(-c2c(Cl)cc(C(F)(F)F)cc2Cl)c1N,169 to 171
20,COc1ccc([C@H]2SC=C(c3ccccc3)N(CCN(C)C)C(=O)[C@H]2OC(C)=O)cc1,149 to 151
21,COc1cc(-c2nc3ccc(OCCN(C(C)C)C(C)C)cc3n2Cc2ccccc2C(F)(F)F)cc(OC)c1OC,184
22,CCCC(=O)NC1=CC(=O)c2ccc(C)nc2C1=O,188 to 189
23,CC(C)(C)c1cc(CC2CO2)cc(C(C)(C)C)c1O (configuration not stated),86 to 87
24,COC(=O)CCc1cc([N+](=O)[O-])c(O)c(C(C)(C)C)c1,41 to 42
